Where two headings read alike, the source gives them in different places.

These results are taken from patent publication US20220348590A1, “CYCLOOXYGENASE-2 INHIBITORS AND USES THEREOF” (The Board Institute, Inc., priority 2019, published 2022).

The assay deals with T1, human recombinant COX2 (hCOX2) (UniProt P35354).
T1 sequence (P35354 1-604): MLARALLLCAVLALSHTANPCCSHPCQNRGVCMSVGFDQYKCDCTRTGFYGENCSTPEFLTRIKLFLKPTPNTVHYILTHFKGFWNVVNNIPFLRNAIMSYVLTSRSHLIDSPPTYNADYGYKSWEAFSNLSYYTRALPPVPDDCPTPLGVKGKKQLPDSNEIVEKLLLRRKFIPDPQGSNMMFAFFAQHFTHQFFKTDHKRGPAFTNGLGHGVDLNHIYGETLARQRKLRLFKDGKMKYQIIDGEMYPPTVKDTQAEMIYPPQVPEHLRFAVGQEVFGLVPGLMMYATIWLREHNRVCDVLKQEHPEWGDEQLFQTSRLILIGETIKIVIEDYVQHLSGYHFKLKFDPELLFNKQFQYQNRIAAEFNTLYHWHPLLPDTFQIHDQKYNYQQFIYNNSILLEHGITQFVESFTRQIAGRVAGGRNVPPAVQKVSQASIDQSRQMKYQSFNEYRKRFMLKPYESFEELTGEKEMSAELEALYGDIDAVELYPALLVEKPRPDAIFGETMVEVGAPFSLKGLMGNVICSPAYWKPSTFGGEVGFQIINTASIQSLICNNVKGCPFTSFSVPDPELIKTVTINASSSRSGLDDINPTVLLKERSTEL
In words: LCMS-based COX2 enzymatic inhibition assay (PGE2 quantification). Particulars: for IC50: average. Also on record: COX2 2 minutes pge2/pge2d4 area ratio Avg; other: 2 minutes; readout pge2/pge2d4 area ratio; average; COX2 2 minutes pge2/pge2d4 area ratio Avg; LLE; average LLE; COX2 2 minutes pge2 area (counts) Avg; readout pge2 area (counts); other: 2 min; "ovine COX2 (oCOX2), human recombinant COX2 (hCOX2)". The class given is biochemical. The gist of the method:
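Ovine COX-1 (0.1 μg) or human recombinant COX2 (0.2 μg) in 100 mM Tris.HCl pH 8.0 with hematin and epinephrine, preincubated with inhibitor 10 min at 37 °C. Reaction with 5 μM arachidonic acid stopped after 2 min with HCl; PGE2 quantified by LC-MS-MS. IC50 from 12 concentrations in triplicate.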

Setting [1] is: 2 minutes, readout pge2/pge2d4 area ratio, average LLE.
[2] abbreviates: 2 minutes, readout pge2/pge2d4 area ratio, read-out: COX2 2 minutes pge2/pge2d4 area ratio Avg. IC50.
[3] abbreviates: 2 minutes, readout pge2 area (counts), average LLE.
Where [4] appears, read: 2 minutes, readout pge2 area (counts), read-out: COX2 2 minutes pge2 area (counts) Avg. IC50.
Setting [5] is: read-out: COX2 2 minutes pge2/pge2d4 area ratio Avg. IC50 (microM), 2 minutes, readout pge2/pge2d4 area ratio.

Turning to `CS(=O)(=O)c1ccc(-c2cccc(C(=O)Cc3cccs3)n2)cc1` [Compound 206], under setting [1], the “COX2 2 minutes pge2/pge2d4 area ratio Avg. LLE” value amounted to 2.741. Besides, the IC50 is 1.27 µM under setting [2] and 1.59 µM under setting [4]. For the same compound, the “COX2 2 minutes pge2 area (counts) Avg. LLE” value (shortened to “COX2 2 minutes pge2 area”) under setting [3] is given as 2.638.
Turning to `COc1ncc(NCc2cccnc2)nc1-c1ccc(S(C)(=O)=O)cc1` [Compound 166], under setting [1], the “COX2 2 minutes pge2/pge2d4 area ratio Avg. LLE” value is reported as 5.259. Further, the IC50 runs as follows: under setting [2], 0.427 µM; under setting [4], 0.38 µM. Moreover, under setting [3], the “COX2 2 minutes pge2 area” value is reported as 5.249.
In the same order, the values of `CS(=O)(=O)c1ccc(-c2cccc(NCc3cnco3)n2)cc1` [Compound 216] are 3.544, 1.54 µM, 1.22 µM and 3.646.
With `CS(=O)(=O)c1ccc(-c2cnnc(OCc3ccco3)c2)cc1` [Compound 255], the “COX2 2 minutes pge2/pge2d4 area ratio Avg. LLE” value under setting [1] was found to be 3.111. Besides, the IC50 by setting is: under setting [2], 4.01 µM; under setting [4], 1.93 µM. Besides, under setting [3], the “COX2 2 minutes pge2 area” value turned out to be 3.485.
In the same order, the values of `CS(=O)(=O)c1ccc(-c2cccc(NCc3cnoc3)n2)cc1` [Compound 136] are 5.1378, 0.196 µM, 0.161 µM and 5.206.
On to `CS(=O)(=O)c1ccc(-c2cncc(OCc3ccns3)n2)cc1` [Compound 153], for which the “COX2 2 minutes pge2/pge2d4 area ratio Avg. LLE” value under setting [1] is 5.153. The IC50 reads like this: under setting [2], 0.304 µM; under setting [4], 0.195 µM. Further, the “COX2 2 minutes pge2 area” value under setting [3] amounted to 5.323.
On the same counts, the results for `CS(=O)(=O)c1ccc(-c2cccc(NCc3ccn[nH]3)n2)cc1` [Compound 264] are 2.63, 4.62 µM, 4.13 µM and 2.705.
In the case of `Cn1nccc1CNc1cccc(-c2ccc(S(C)(=O)=O)cc2)n1` [Compound 197], under setting [1], the “COX2 2 minutes pge2/pge2d4 area ratio Avg. LLE” value stood at 3.969. The IC50 runs as follows: under setting [2], 0.951 µM; under setting [4], 0.832 µM. The “COX2 2 minutes pge2 area” value under setting [3] was 4.01.
As to `COCc1ccc(NCc2cccs2)nc1-c1ccc(S(C)(=O)=O)cc1` [Compound 100], under setting [1], the “COX2 2 minutes pge2/pge2d4 area ratio Avg. LLE” value turned out to be 3.645. The IC50 runs as follows: under setting [2], 0.0839 µM; under setting [4], 0.106 µM. Also, the “COX2 2 minutes pge2 area” value under setting [3] was determined as 3.594.
On the same counts, the results for `CS(=O)(=O)c1ccc(-c2nc(OCc3cccs3)ccc2F)cc1` [Compound 101] are 3.357, 0.0867 µM, 0.0772 µM and 3.332.
With `COc1ncc(OCc2ccco2)nc1-c1ccc(S(C)(=O)=O)cc1` [Compound 81], the “COX2 2 minutes pge2/pge2d4 area ratio Avg. LLE” value under setting [1] came out at 5.231. For the same compound, the IC50 worked out at 0.0559 µM under setting [2] and 0.041 µM under setting [4]. Also, the “COX2 2 minutes pge2 area” value under setting [3] came out at 5.428.
In the same order, the values of `CS(=O)(=O)c1ccc(-c2cncc(OC[C@@H]3CCCS3)n2)cc1` (single isomer, unassigned) [Compound 170] are 4.61, 0.442 µM, 0.931 µM and 4.149.
On the same counts, the results for `Cc1cocc1CNc1cccc(-c2ccc(S(C)(=O)=O)cc2)n1` [Compound 40] are 4.502, 0.0188 µM, 0.0207 µM and 4.487.
Take `CS(=O)(=O)c1ccc(-c2cncc(CCc3cccs3)n2)cc1` [Compound 225]: the “COX2 2 minutes pge2/pge2d4 area ratio Avg. LLE” value under setting [1] worked out at 3.328. Further, the IC50 turned out to be 2 µM under setting [2] and 2.4 µM under setting [4]. In addition, the “COX2 2 minutes pge2 area” value under setting [3] is listed as 3.249.
As for `CS(=O)(=O)c1ccc(-c2cccc(NCc3cc[nH]c3)n2)cc1` [Compound 185], under setting [1], the “COX2 2 minutes pge2/pge2d4 area ratio Avg. LLE” value was 3.623. Also, the IC50 turned out to be 0.61 µM under setting [2] and 0.572 µM under setting [4]. Further, the “COX2 2 minutes pge2 area” value under setting [3] was 3.623.
Consider `CS(=O)(=O)c1ccc(-c2cc(OCc3ccco3)cnn2)cc1` [Compound 323], for which the IC50 under setting [5] was found to be 5.2 µM.
Take `CS(=O)(=O)c1ccc(-c2cncc(/C=C/c3cccs3)n2)cc1` [Compound 223]: the “COX2 2 minutes pge2/pge2d4 area ratio Avg. LLE” value under setting [1] was determined as 2.992. Besides, the IC50 under setting [2] was determined as 1.86 µM and the IC50 under setting [4] was found to be 2.24 µM. Under setting [3], the “COX2 2 minutes pge2 area” value is recorded as 2.918.
Consider `CS(=O)(=O)c1ccc(-c2cncc(N3CCOCC3)n2)cc1` [Compound 286], for which, under setting [1], the “COX2 2 minutes pge2/pge2d4 area ratio Avg. LLE” value was 5.044. Also, where the note is “10 minutes, readout pge2 area (counts), average LLE”, the “COX2 10 minutes pge2 area (counts) Avg. LLE” value is listed as 5.772. For the same compound, the IC50 reads like this: (10 minutes, readout pge2 area (counts), read-out: COX2 10 minutes pge2 area (counts) Avg. IC50) 0.974 µM; under setting [5], 5.2 µM.
As to `CS(=O)(=O)c1ccc(-c2cncc(OCCc3cccs3)n2)cc1` [Compound 312], under setting [3], the “COX2 2 minutes pge2 area” value is 2.744. The IC50 under setting [5] came out at 5.2 µM.
`CS(=O)(=O)c1ccc(-c2nc(NCc3cccs3)cnc2C#N)cc1` [Compound 159]: the “COX2 2 minutes pge2/pge2d4 area ratio Avg. LLE” value under setting [1] was determined as 4.781. Moreover, the IC50 turned out to be 0.361 µM under setting [2] and 0.381 µM under setting [4]. Further, under setting [3], the “COX2 2 minutes pge2 area” value was 4.751.
As for `COc1ncc(NCc2cccs2)nc1-c1ccc(S(C)(=O)=O)cn1` [Compound 128], under setting [1], the “COX2 2 minutes pge2/pge2d4 area ratio Avg. LLE” value is 5.784. Moreover, the IC50 is, setting by setting: under setting [2], 0.144 µM; under setting [4], 0.139 µM. The “COX2 2 minutes pge2 area” value under setting [3] is on record as 5.809.
As for `CS(=O)(=O)c1ccc(-c2cncc(OCc3cccs3)c2)cc1` [Compound 232], the “COX2 2 minutes pge2/pge2d4 area ratio Avg. LLE” value under setting [1] came out at 2.229. The IC50 under setting [2] was 2.41 µM and the IC50 under setting [4] came out at 2.35 µM. The “COX2 2 minutes pge2 area” value under setting [3] is 2.107.
As to `CS(=O)(=O)c1ccc(-c2cncc(OCc3nccs3)c2)cc1` [Compound 289], under setting [1], the “COX2 2 minutes pge2/pge2d4 area ratio Avg. LLE” value is on record as 2.234. Moreover, under setting [3], the “COX2 2 minutes pge2 area” value was found to be 2.234. Under setting [5], the IC50 came to 5.2 µM.
On to `CS(=O)(=O)c1ccc(-c2cnc(C(F)(F)F)c(OCc3cccs3)n2)cc1` [Compound 118], for which, under setting [1], the “COX2 2 minutes pge2/pge2d4 area ratio Avg. LLE” value is listed as 3.641. The IC50 under setting [2] was 0.114 µM and the IC50 under setting [4] was 0.153 µM. Under setting [3], the “COX2 2 minutes pge2 area” value is on record as 3.56.
On to `CS(=O)(=O)c1ccc(-c2cccc(NCc3cocn3)n2)cc1` [Compound 254], for which the “COX2 2 minutes pge2/pge2d4 area ratio Avg. LLE” value under setting [1] was determined as 3.075. Further, the IC50 under setting [2] is 3.93 µM.
Regarding `CS(=O)(=O)c1ccc(-c2cncc(OCc3ccc(F)cc3)n2)cc1` [Compound 294], the “COX2 2 minutes pge2 area” value under setting [3] was determined as 2.694. Further, under setting [5], the IC50 is 5.2 µM.
Turning to `CS(=O)(=O)c1ccc(-c2cncc(SCc3ncco3)n2)cc1` [Compound 217], the “COX2 2 minutes pge2/pge2d4 area ratio Avg. LLE” value under setting [1] was found to be 3.66. The IC50 is, setting by setting: under setting [2], 1.54 µM; under setting [4], 2.24 µM. Also, the “COX2 2 minutes pge2 area” value under setting [3] was 3.522.
In the same order, the values of `CS(=O)(=O)c1ccc(-c2cncc(NC[C@@H]3CCCS3)n2)cc1` (single isomer, unassigned) [Compound 167] are 4.792, 0.432 µM, 0.433 µM and 4.782.
Turning to `CS(=O)(=O)c1ccc(-c2cncc(NC(=O)c3cccs3)n2)cc1` [Compound 192], the “COX2 2 minutes pge2/pge2d4 area ratio Avg. LLE” value under setting [1] was 4.414. The IC50 under setting [2] was 0.751 µM and the IC50 under setting [4] was found to be 0.602 µM. Besides, the “COX2 2 minutes pge2 area” value under setting [3] stood at 4.524.
For the compound `CS(=O)(=O)c1ccc(-c2cncc(NCc3ccsc3)n2)cc1` [Compound 104], under setting [1], the “COX2 2 minutes pge2/pge2d4 area ratio Avg. LLE” value is 4.901. For the same compound, the IC50 runs as follows: under setting [2], 0.0911 µM; under setting [4], 0.0741 µM. Also, under setting [3], the “COX2 2 minutes pge2 area” value was found to be 4.97.
In the case of `C[S+]([O-])c1ccc(-c2cccc(OCc3cccs3)n2)cc1` (stereo not drawn) [Compound 157], under setting [1], the “COX2 2 minutes pge2/pge2d4 area ratio Avg. LLE” value was determined as 3.382. The IC50 reads like this: under setting [2], 0.35 µM; under setting [4], 0.428 µM. In addition, the “COX2 2 minutes pge2 area” value under setting [3] is 3.281.
